Test results reported in patent publication US6525001B1, “Substituted pyrimidine and pyridine herbicides” (Mid-American Commercialization Corporation, priority 1997, dated 2003).

Experiments:
Test in all cases: Test C
Format in all cases: in vivo
Design in all cases: key: 0 was no effect; 100 was complete control
Settings in all cases: PREEMERGENCE
[1] = test system: barnyardgrass (Echinochloa crus-galli)
[2] = test system: velvetleaf (Abutilon theophrasti)
[3] = test system: fall panicum (Panicum dichotomiflorum)
[4] = test system: cocklebur (Xanthium strumarium)
[5] = test system: large crabgrass (Digitaria sanguinalis)
[6] = test system: redroot pigweed (Amaranthus retroflexus)
[7] = test system: arrowleaf sida (Sida rhombifolia)
[8] = test system: common ragweed (Ambrosia elatior)
[9] = test system: giant foxtail (Setaria faberii)
[10] = test system: ladysthumb smartweed (Polygonum persicaria)

SMILES | Plant response rating, Barnyardgrass ([1]; Rate 35 g/ha) | Plant response rating, Barnyardgrass ([1]; Rate 70 g/ha) | Plant response rating, Barnyardgrass ([1]; Rate 140 g/ha) | Plant response rating, Velvetleaf ([2]; Rate 35 g/ha) | Plant response rating, Velvetleaf ([2]; Rate 70 g/ha) | Plant response rating, Velvetleaf ([2]; Rate 140 g/ha) | Plant response rating, Fall panicum ([3]; Rate 35 g/ha) | Plant response rating, Fall panicum ([3]; Rate 70 g/ha) | Plant response rating, Fall panicum ([3]; Rate 140 g/ha) | Plant response rating, Cocklebur ([4]; Rate 35 g/ha) | Plant response rating, Large crabgrass ([5]; Rate 35 g/ha) | Plant response rating, Large crabgrass ([5]; Rate 70 g/ha) | Plant response rating, Large crabgrass ([5]; Rate 140 g/ha) | Plant response rating, Redroot pigweed ([6]; Rate 70 g/ha) | Plant response rating, Redroot pigweed ([6]; Rate 140 g/ha) | Plant response rating, Arrowleaf sida ([7]; Rate 35 g/ha) | Plant response rating, Arrowleaf sida ([7]; Rate 70 g/ha) | Plant response rating, Arrowleaf sida ([7]; Rate 140 g/ha) | Plant response rating, Common ragweed ([8]; Rate 35 g/ha) | Plant response rating, Common ragweed ([8]; Rate 70 g/ha) | other results
Cc1cnc(-n2cnc(C(F)(F)F)n2)nc1Cc1cccc(C(F)(F)F)c1 [Compound 43] | 10 | 30 | 50 | 100 | 100 | 100 | 100 | 100 | 100 | 0 | 100 | 100 | 100 | 100 | 100 | 100 | 100 | 100 | 0 | 40 | Plant response rating, Redroot pigweed ([6]; Rate 35 g/ha): 100; Plant response rating, Common ragweed ([8]; Rate 140 g/ha): 50; Plant response rating, Giant foxtail ([9]; Rate 35 g/ha): 100; Plant response rating, Giant foxtail ([9]; Rate 70 g/ha): 100; Plant response rating, Giant foxtail ([9]; Rate 140 g/ha): 100
Cc1cnc(-c2ccc(C(F)(F)F)cc2)nc1C(Cl)c1cccc(C(F)(F)F)c1 (racemic) [Compound 21] | 0 | 0 | 5 | 0 | 50 | 50 | 10 | 0 | 90 | 0 | 80 | 100 | 100 | 80 | 100 | 70 | 85 | 90 | 0 | 0 | Plant response rating, Ladysthumb ([10]; Rate 35 g/ha): 0; Plant response rating, Ladysthumb ([10]; Rate 140 g/ha): 5; Plant response rating, Cocklebur ([4]; Rate 70 g/ha): 0; Plant response rating, Cocklebur ([4]; Rate 140 g/ha): 0; Plant response rating, Common ragweed ([8]; Rate 140 g/ha): 20; Plant response rating, Giant foxtail ([9]; Rate 35 g/ha): 85; Plant response rating, Giant foxtail ([9]; Rate 70 g/ha): 100; Plant response rating, Giant foxtail ([9]; Rate 140 g/ha): 100
Cc1cnc(-n2ccc(C(F)(F)F)n2)nc1C(=O)c1cccc(OC(F)(F)F)c1 [Compound 66] | 0 | 5 | 5 | 0 | 0 | 0 | 80 | 80 | 100 | 0 | 80 | 100 | 100 | 100 | 100 | 5 | 5 | 100 | 0 | 0 | Plant response rating, Ladysthumb ([10]; Rate 35 g/ha): 0; Plant response rating, Ladysthumb ([10]; Rate 140 g/ha): 70; Plant response rating, Cocklebur ([4]; Rate 70 g/ha): 0; Plant response rating, Cocklebur ([4]; Rate 140 g/ha): 0; Plant response rating, Redroot pigweed ([6]; Rate 35 g/ha): 100; Plant response rating, Common ragweed ([8]; Rate 140 g/ha): 30; Plant response rating, Giant foxtail ([9]; Rate 35 g/ha): 0; Plant response rating, Giant foxtail ([9]; Rate 70 g/ha): 0; Plant response rating, Giant foxtail ([9]; Rate 140 g/ha): 0
